Test results as given in patent US20150315218A1, “SALTS OF PRODRUGS OF PIPERAZINE AND SUBSTITUTED PIPERIDINE ANTIVIRAL AGENTS” (Bristol-Myers Squibb Company, priority 2004, published 2015).
Read-outs that look alike come from different tables or passages of the source.

Columns and labels:
[1] = Single-dose oral toxicokinetic study of prodrugs in rats; assay type: in vivo, rat; settings: for concentration at 24 h / Cmax / AUC: male, CD, rat, plasma; for concentration at 24 h: oral, read-out: C24 h; for Cmax / AUC: po
Method: A 1-day oral toxicokinetic study in rats was conducted using the prodrug Iab (monolysine salt). Iab was administered at dosages of 16, 72, and 267 mg/kg (free acid) by oral gavage to three male rats/group using water as the vehicle (solution formulation). The dosages of prodrug free acid correspond to IVa (parent) molar equivalent dosages of 13, 57, and 211 mg/kg, respectively. The endpoint evaluated was plasma toxicokinetics of Iab and IVa in the individual rats.
A 1-day oral toxicokinetic study in rats was conducted by using the prodrug Ibb (monolysine salt). Ibb was administered at dosages of 19, 64, and 236 mg/kg (free acid) by oral gavage to three male rats/group using water as the vehicle (solution formulation).
A 1-day oral toxicokinetic study in rats was conducted using the prodrug Icb (disodium salt). Icb was administered at dosages of 5, 25, and 200 mg/kg (free acid) by oral gavage to three male rats/group using water as the vehicle (solution formulation).

[2] = Single-dose toxicokinetic and tolerability study of prodrugs in dogs; assay type: in vivo, dog; settings: for AUC(0-inf) / concentration at 24 h / Cmax: dog, plasma; for concentration at 24 h: read-out: C24h
Method: A multi-phase study was conducted to evaluate the tolerability of the prodrug, Iab (monolysine salt) at dosages of 24, 90, or 240 mg/kg (free acid, molar equivalent to 19, 71, or 190 mg/kg of parent IVa, respectively) and the toxicokinetics of lab and IVa (4). Iab was administered to two female dogs/group once daily either as an aqueous solution (24 or 90 mg/kg) or dry-filled capsules (24, 90 [once and twice daily] or 240 mg/kg). The endpoints were: clinical signs, body weight, food consumption, and plasma toxicokinetics of lab and IVa. In all cases, a 1-week washout period was used between doses for all phases of the study. […]
On day 1, Icb was administered to one dog/sex/group once daily in dry-filled capsules at the above dosages. A 1-week washout period was used between doses in the study. On day 8, Icb was administered to one dog/sex/group once daily as an aqueous solution at 25 mg/kg or twice daily in dry-filled capsules at 46 or 125 mg/kg BID.

[3] = IV and PO pharmacokinetic studies of prodrug salts (Iab, Ibb, Icb) in the monkey, with historical parent data; assay type: in vivo, cynomolgus monkeys; settings: for AUC: read-out: AUCtot; for concentration at 24 hr: read-out: C-24 hr; for Cmax: read-out: Cmax
Method: The IV and PO studies of Iab were conducted in a crossover fashion in three male cynomolgus monkeys (11±1.2 kg, Charles River Biomedical Research Foundation, Houston, Tex.). There was a two-week washout period between the IV and PO studies.
In the IV study, Iab was infused via the femoral vein at 1.3 mg/kg (free acid, or 1.1 mg/kg of IVa equivalent) over 5 min at a constant rate of 0.1 mL/kg/min. The concentration of the dosing solution was 2.6 mg/mL, and the dosing volume was 0.5 mL/kg. Serial blood samples were collected from the femoral artery before dosing and at 5, 10, 15, 30, 45 min, 1, 2, 4, 6, 8 and 24 hr after dosing.
In the PO study, the monkeys were fasted overnight before dosing. Iab was administered by oral gavage at 7.1 mg/kg (free acid, or 5.6 mg/kg of IVa equivalent). The concentration of the dosing solution was 14.2 mg/mL, and the dosing volume was 0.5 mL/kg. Serial blood samples were collected before dosing and at 15, 30, 45 min, 1, 2, 4, 6, 8 and 24 hr after dosing.
The IV and PO studies of Ibb were conducted in a crossover fashion in three male cynomolgus monkeys (9.9±2.4 kg, Charles River Biomedical Research Foundation, Houston, Tex.). There was a two-week washout period between the IV and PO studies.
The concentration of the dosing solution was 2.7 mg/mL, and the dosing volume was 0.5 mL/kg. Serial blood samples were collected from the femoral artery before dosing and at 5, 10, 15, 30, 45 min, 1, 2, 4, 6, 8 and 24 hr after dosing.
In the PO study, the monkeys were fasted overnight before dosing. […] The concentration of the dosing solution was 5.8 mg/mL, and the dosing volume was 1 mL/kg. Serial blood samples were collected before dosing and at 15, 30, 45 min, 1, 2, 4, 6, 8 and 24 hr after dosing.
The IV and PO studies of Icb were conducted in a crossover fashion in three male cynomolgus monkeys (10±1.6 kg, Charles River Biomedical Research Foundation, Houston, Tex.). There was a two-week washout period between the IV and PO studies.
The concentration of the dosing solution was 2.8 mg/mL, and the dosing volume was 0.5 mL/kg. Serial blood samples were collected from the femoral artery before dosing and at 5, 10, 15, 30, 45 min, 1, 2, 4, 6, 8 and 24 hr after dosing.
In the PO study, the monkeys were fasted overnight before dosing. […] The concentration of the dosing solution was 9.8 mg/mL, and the dosing volume was 0.5 mL/kg. Serial blood samples were collected before dosing and at 15, 30, 45 min, 1, 2, 4, 6, 8 and 24 hr after dosing.

[4] = female, 25 mg/kg, dog 2201F, day 8, Icb 25 mg/kg QD aqueous solution
[5] = female, po, 25 mg/kg, dog 2201F, day 1, Icb 25 mg/kg (IVc equiv. 20) QD dry-filled capsules
[6] = female, po, 46 mg/kg, dog 3201F, day 8, Icb 46 mg/kg BID dry-filled capsules
[7] = female, po, 92 mg/kg, dog 3201F, day 1, Icb 92 mg/kg (IVc equiv. 75) QD dry-filled capsules
[8] = female, po, 125 mg/kg, dog 4201F, day 8, Icb 125 mg/kg BID dry-filled capsules, emesis
[9] = female, po, 250 mg/kg, dog 4201F, day 1, Icb 250 mg/kg (IVc equiv. 203) QD dry-filled capsules, emesis
[10] = male, 25 mg/kg, dog 2101M, day 8, Icb 25 mg/kg QD aqueous solution
[11] = male, po, 25 mg/kg, dog 2101M, day 1, Icb 25 mg/kg (IVc equiv. 20) QD dry-filled capsules
[12] = male, po, 46 mg/kg, dog 3101M, day 8, Icb 46 mg/kg BID dry-filled capsules
[13] = male, po, 92 mg/kg, dog 3101M, day 1, Icb 92 mg/kg (IVc equiv. 75) QD dry-filled capsules, emesis
[14] = male, po, 125 mg/kg, dog 4101M, day 8, Icb 125 mg/kg BID dry-filled capsules, emesis
[15] = male, po, 250 mg/kg, dog 4101M, day 1, Icb 250 mg/kg (IVc equiv. 203) QD dry-filled capsules, emesis
[16] = cynomolgus monkey, plasma, po, 5 mg/kg
[17] = male, cynomolgus monkey, plasma, po, 4.9 mg/kg

COc1cnc(-n2cnc(C)n2)c2[nH]cc(C(=O)C(=O)N3CCN(C(=O)c4ccccc4)CC3)c12 [IVc]
concentration at 24 h ([1]; 5 mg/kg): 29 nM
concentration at 24 h ([1]; 25 mg/kg): 350 nM
concentration at 24 h ([1]; 200 mg/kg): 58000 nM
Cmax ([1]; 5 mg/kg): 29 µM
AUC ([1]; 5 mg/kg, read-out: AUC from zero to ∞): 109 µM·h
Cmax ([1]; 25 mg/kg): 98 µM
AUC ([1]; 25 mg/kg, read-out: AUC from zero to ∞): 586 µM·h
AUC ([1]; 200 mg/kg): 2920 µM·h
Cmax ([1]; 200 mg/kg): 281 µM
time post-dose at which mean maximum plasma concentration (Cmax) was achieved ([1]; rats, single oral dose of prodrug): ≤ 1.7 h
time post-second dose at which mean Cmax of parent was achieved ([2]; dogs, BID dosing of prodrug): 1 to 2 h
time post-dose at which mean Cmax of parent was achieved ([2]; dogs, once daily (QD) dosing of prodrug): 1 to 2 h
AUC(0-inf) [2, 4]: 173 µM·h
concentration at 24 h [2, 4]: 107 nM
concentration at 24 h ([2]; female, oral, 25 mg/kg, dog 2201F, day 1, Icb 25 mg/kg (IVc equiv. 20) QD dry-filled capsules): 688 nM
Cmax ([2]; female, oral, 25 mg/kg, dog 2201F, day 8, Icb 25 mg/kg QD aqueous solution): 46.8 µM
concentration at 24 h ([2]; female, oral, 46 mg/kg, dog 3201F, day 8, Icb 46 mg/kg BID dry-filled capsules): 307 nM
concentration at 24 h ([2]; female, oral, 92 mg/kg, dog 3201F, day 1, Icb 92 mg/kg (IVc equiv. 75) QD dry-filled capsules): 202 nM
concentration at 24 h ([2]; female, oral, 125 mg/kg, dog 4201F, day 8, Icb 125 mg/kg BID dry-filled capsules): 1960 nM
concentration at 24 h ([2]; female, oral, 250 mg/kg, dog 4201F, day 1, Icb 250 mg/kg (IVc equiv. 203) QD dry-filled capsules): 704 nM
AUC(0-inf) [2, 5]: 122 µM·h
Cmax [2, 5]: 24.6 µM
AUC(0-inf) [2, 6]: 490 µM·h
Cmax [2, 6]: 104 µM
AUC(0-inf) [2, 7]: 730 µM·h
Cmax [2, 7]: 157 µM
AUC(0-inf) [2, 8]: 596 µM·h
Cmax [2, 8]: 96.9 µM
AUC(0-inf) [2, 9]: 523 µM·h
Cmax [2, 9]: 88.9 µM
AUC(0-inf) [2, 10]: 362 µM·h
concentration at 24 h [2, 10]: 547 nM
concentration at 24 h ([2]; male, oral, 25 mg/kg, dog 2101M, day 1, Icb 25 mg/kg (IVc equiv. 20) QD dry-filled capsules): 8 nM
Cmax ([2]; male, oral, 25 mg/kg, dog 2101M, day 8, Icb 25 mg/kg QD aqueous solution): 59.4 µM
concentration at 24 h ([2]; male, oral, 46 mg/kg, dog 3101M, day 8, Icb 46 mg/kg BID dry-filled capsules): 10600 nM
concentration at 24 h ([2]; male, oral, 92 mg/kg, dog 3101M, day 1, Icb 92 mg/kg (IVc equiv. 75) QD dry-filled capsules): 1900 nM
concentration at 24 h ([2]; male, oral, 125 mg/kg, dog 4101M, day 8, Icb 125 mg/kg BID dry-filled capsules): 54200 nM
concentration at 24 h ([2]; male, oral, 250 mg/kg, dog 4101M, day 1, Icb 250 mg/kg (IVc equiv. 203) QD dry-filled capsules): 2610 nM
AUC(0-inf) [2, 11]: 365 µM·h
Cmax [2, 11]: 65.1 µM
AUC(0-inf) [2, 12]: 1140 µM·h
Cmax [2, 12]: 121 µM
AUC(0-inf) [2, 13]: 820 µM·h
Cmax [2, 13]: 117 µM
AUC(0-inf) [2, 14]: 3780 µM·h
Cmax [2, 14]: 226 µM
AUC(0-inf) [2, 15]: 739 µM·h
Cmax [2, 15]: 92.6 µM
AUC ([3]; cynomolgus monkey, plasma, iv, 1 mg/kg): 5 ± 1 µM·h
MRT ([3]; cynomolgus monkey, plasma, iv, 1 mg/kg, read-out: MRT): 52.2 ± 5.1 min
Vd ([3]; cynomolgus monkey, plasma, iv, 1 mg/kg, read-out: Vdss): 0.4 ± 0.097 L/kg
concentration at 24 hr ([3]; cynomolgus monkey, plasma, oral, 5 mg/kg): 17 ± 11 nM
AUC [3, 16]: 14 ± 4 µM·h
Cmax [3, 16]: 4.2 ± 2.6 µM
bioavailability ([3]; cynomolgus monkey, plasma, monkey, historical parent, PO 5 mg/kg, read-out: Bioavailability (%)): 64%
Tmax ([3]; cynomolgus monkey, plasma, monkey, historical parent, PO 5 mg/kg, read-out: Tmax (hr), PO): 2.3 h
bioavailability ([3]; male, cynomolgus monkey, plasma, oral, 4.9 mg/kg, read-out: Bioavailability): 122%
concentration at 24 hr ([3]; male, cynomolgus monkey, plasma, oral, 4.9 mg/kg): 7 ± 2 nM
AUC [3, 17]: 24 ± 4.6 µM·h
Cmax [3, 17]: 9.5 ± 1.2 µM
Tmax ([3]; male, cynomolgus monkey, plasma, po, 4.9 mg/kg, read-out: Tmax): 0.92 ± 0.14 h
bioavailability ([3]; male, cynomolgus monkey, plasma, monkey, oral prodrug, read-out: Bioavailability (%) of parent from prodrug): 122%
Tmax ([3]; male, cynomolgus monkey, plasma, monkey, parent after oral prodrug (~4-6 mg/kg parent equivalent), read-out: Tmax (hr), PO): 0.92 h
Tmax ([3]; monkey, PO IVc 5 mg/kg, historical IVc): 2.3 ± 1.5 h
